Two compounds from US12686866B2, “Methods of treating cancer by suppression of FAMIN expression” (Cambridge Enterprise Limited, priority 2018, dated 2026) can be followed below.

Holding throughout (type): biochemical
For experiment [1], the target named is T1, recombinant FAMIN (Homo sapiens, UniProt Q8IV20).
T1 sequence (Q8IV20 1-430): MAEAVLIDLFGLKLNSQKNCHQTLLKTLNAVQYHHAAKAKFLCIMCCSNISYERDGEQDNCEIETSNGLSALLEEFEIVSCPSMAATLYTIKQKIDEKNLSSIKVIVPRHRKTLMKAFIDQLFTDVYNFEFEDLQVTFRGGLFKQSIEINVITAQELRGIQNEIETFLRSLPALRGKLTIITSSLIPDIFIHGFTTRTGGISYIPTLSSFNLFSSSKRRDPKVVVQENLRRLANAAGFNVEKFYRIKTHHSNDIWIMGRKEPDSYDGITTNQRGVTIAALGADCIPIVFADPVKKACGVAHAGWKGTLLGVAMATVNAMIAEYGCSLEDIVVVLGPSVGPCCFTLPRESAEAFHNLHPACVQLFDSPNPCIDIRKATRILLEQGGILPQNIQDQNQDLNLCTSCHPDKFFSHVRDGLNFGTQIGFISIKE
In words: FAMIN adenosine deaminase activity: inosine generated from adenosine by recombinant FAMIN. The following applies: 10 μg recombinant FAMIN, 10 μM adenosine in PBS, 1 h at 37° C.; FIG. 11A. The source says:
(§1) FIGS. 11B and 11C show levels of adenine and ribose-1-phosphate (R-1-P) in the reaction described in FIG. 11A.

The target of experiment [2] is T1, recombinant FAMIN. In words: FAMIN purine nucleoside phosphorylase activity: hypoxanthine and R-1-P from inosine with recombinant FAMIN. The following applies: 10 μg recombinant FAMIN, 10 μM inosine in PBS, 1 h at 37° C.; FIG. 11D, E.
Text: as §1

Experiment [3] has as its target T1, recombinant FAMIN. In words: FAMIN adenosine phosphorylase activity: adenine and R-1-P from adenosine with recombinant FAMIN. Conditions: 10 μg recombinant FAMIN, 10 μM adenosine in PBS, 1 h at 37° C., FIG. 11B.
Text: as §1

Take `CCCCCC[C@@H]([C@@H](C)O)n1cnc2c(N)ncnc21` (racemic) [EHNA, erythro-9-(2-hydroxy-3-nonyl) adenine]: on recombinant FAMIN [1], the “effect on FAMIN's adenosine deaminase activity (generation of inosine from adenosine)” value is given as “inhibit FAMIN's adenosine deaminase activity”. `Nc1nc2c(nc(N)n2[C@@H]2O[C@H](CO)[C@@H](O)[C@H]2O)c(=O)[nH]1` [8-aminoguanosine]: on recombinant FAMIN [2], the “effect on FAMIN's purine nucleoside phosphorylase activity (hypoxanthine and R-1-P levels)” value is reported as “active on FAMIN's purine nucleoside phosphorylase activity”. The “effect on FAMIN's adenosine phosphorylase activity (adenine and R-1-P levels)” value at recombinant FAMIN [3] is given as “leaving FAMIN's adenosine phosphorylase activity intact”.
